Assay results from PubChem BioAssay (NCI).
Several values for one entry are separate records, joined by “and”; a condition that tells them apart may be missing. Equal values may be shown once.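 Interpolation was linear, between the two tested concentrations surrounding the appropriate level; five concentrations were tested over 48 hours in 96-well plates. GI50 = concentration required for 50% inhibition of growth. The concentration for full growth arrest is given as TGI.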

Key:
Experiment in all cases: inhibition of tumour cell growth, NCI panel, 48 h
786-0 renal = tested on: 786-0 renal
CAKI-1 renal = tested on: CAKI-1 renal
HCT-15 colon = tested on: HCT-15 colon
IGROV1 ovarian = tested on: IGROV1 ovarian
NCI-H522 lung = tested on: NCI-H522 lung
OVCAR-4 ovarian = tested on: OVCAR-4 ovarian
RPMI-8226 leukemia = tested on: RPMI-8226 leukemia
SF-295 CNS = tested on: SF-295 CNS
SR leukemia = tested on: SR leukemia
UACC-62 melanoma = tested on: UACC-62 melanoma

Structure (SMILES) | GI50 (786-0 renal) | TGI (786-0 renal) | GI50 (CAKI-1 renal) [µM] | TGI (CAKI-1 renal) [µM] | GI50 (HCT-15 colon) | TGI (HCT-15 colon) | GI50 (IGROV1 ovarian) | TGI (IGROV1 ovarian) | GI50 (NCI-H522 lung) | TGI (NCI-H522 lung) | GI50 (OVCAR-4 ovarian) | TGI (OVCAR-4 ovarian) | GI50 (RPMI-8226 leukemia) | TGI (RPMI-8226 leukemia) | GI50 (SF-295 CNS) | TGI (SF-295 CNS) | GI50 (SR leukemia) | TGI (SR leukemia) | GI50 (UACC-62 melanoma) | TGI (UACC-62 melanoma)
C#Cc1cccc(NC(=O)Nc2ccccc2NC(=O)CCl)c1 | 29.7 µM | > 82.5 µM | 15.1 | 33.8 | 15.1 µM | 41.6 µM | 13.6 µM | 28 µM | 20.8 µM | 71.5 µM | 16 µM | 41 µM | 15.2 µM | > 82.5 µM | 39.4 µM | > 82.5 µM | 23.8 µM | > 82.5 µM | 13.8 µM | 25.8 µM
COc1ccc(CN2CCc3c(Cl)nc(N)nc3C2=O)c(OC)c1 | 23.9 µM | 48.1 µM | 43.6 | > 100 | 10.4 µM | 24.3 µM | 7.56 µM | 26.9 µM | 12.7 µM | 30.9 µM | 12.6 µM | 25.6 µM | 16 µM | 52.7 µM | 40.3 µM | > 100 µM | 1.03 µM | 10.7 µM | 13.5 µM | 27.6 µM
CN(C)C1(C#N)CCC2(CC1)OCCO2 | – | > 100 µM | – | > 100 | – | > 100 µM | – | > 100 µM | – | > 100 µM | – | > 100 µM | – | > 100 µM | – | > 100 µM | – | > 100 µM | – | > 100 µM
COC1OC(OC)C2C(c3c(C)cc(C)cc3C)=NOC12 (stereo not drawn) | – | > 100 µM | – | > 100 | – | > 100 µM | – | > 100 µM | – | > 100 µM | – | > 100 µM | – | > 100 µM | – | > 100 µM | – | > 100 µM | – | > 100 µM
O=C(Nc1ccc(Cl)cc1)NS(=O)(=O)c1ccc2c(c1)CCC2 | 21.1 µg/mL | > 100 µM and 40.5 µg/mL | – | > 100 | 16.3 µg/mL | > 90.2 µM and 41.8 µg/mL | 4.37 µg/mL | 94.3 µM and 18.7 µg/mL | 4.86 µg/mL | 94.1 µM and 12.5 µg/mL | 37.9 µg/mL | > 100 µM and 88.1 µg/mL | 34.2 µg/mL | 85.7 µM and 150 µg/mL | 12 µg/mL | > 100 µM and 31.9 µg/mL | 19.3 µg/mL | > 100 µM and 91.6 µg/mL | 15.9 µg/mL | > 84.7 µM and 36.7 µg/mL
CCc1cc(C(N)=O)ccc1-n1nc(C(C)C)c2c(-n3cnc(-c4cnn(C)c4)c3)ccnc21 | 5.67 µM | > 100 µM | 5.61 | > 100 | 2.9 µM | > 100 µM | 4.15 µM | > 100 µM | 1.47 µM | > 100 µM | 6.24 µM | > 100 µM | 3.76 µM | > 100 µM | 0.992 µM | 10.3 µM | 0.546 µM | > 100 µM | 1.18 µM | > 35.4 µM
Cc1ccc(CCC(=O)Nc2ncc(Cc3cc(Cl)ccc3Cl)s2)o1 | 0.692 µM | 4.19 µM | 0.114 | 7.36 | 0.0546 µM | > 100 µM | 0.334 µM | 20.8 µM | 0.229 µM | 12.9 µM | 0.767 µM | > 20.4 µM | 0.335 µM | 61.1 µM | 0.176 µM | 2.15 µM | 0.0557 µM | 18.9 µM | 0.24 µM | > 100 µM
COc1cc[c]([Hg][Cl])cc1 | 3.76 µM | 10.8 µM | 6.55 | 23 | 1.08 µM | 2.36 µM | 1.53 µM | 3.92 µM | 0.45 µM | 2.61 µM | 1.96 µM | 11.5 µM | 3.39 µM | 14.7 µM | 15.5 µM | 29.7 µM | 0.245 µM | 4.13 µM | 4.09 µM | 14.9 µM
COC(=O)C1=CC(=O)C(C(=O)Nc2ccc(OC)cc2)C(c2ccccc2)O1 (stereo not drawn) | – | 41.5 µM | – | > 60 | – | > 100 µM | – | 51 µM | – | 90.1 µM | – | > 77.9 µM | – | > 100 µM | – | 61.4 µM | – | > 100 µM | – | > 89.6 µM
CC(C)NC(=O)OCc1nnn2c1C(OC(=O)NC(C)C)CC2 (stereo not drawn) | – | > 100 µM | – | > 100 | – | > 100 µM | – | > 100 µM | – | > 100 µM | – | > 100 µM | – | > 100 µM | – | > 100 µM | – | > 100 µM | – | > 100 µM
COc1cc([C@@H]2c3cc4c(cc3[C@H](OC3OC5COC(c6ccccc6)OC5C(O)C3O)[C@H]3COC(=O)[C@H]23)OCO4)cc(OC)c1OC (stereo partly drawn) | 0.594 µM | 19.6 µM | 0.378 | 22.2 | 0.281 µM | 13.7 µM | 0.337 µM | 1.34 µM | 0.322 µM | 3.3 µM | 0.663 µM | 11.8 µM | 0.263 µM | 1 µM | 0.27 µM | – | 0.31 µM | > 100 µM | 0.515 µM | 22.1 µM
O=c1[nH]nc(-c2ccccc2)c(-c2ccccc2)c1-n1nc(-c2ccccc2)c2ccccc2c1=O | – | > 100 µM | – | > 100 | – | > 100 µM | – | > 100 µM | – | > 100 µM | – | > 100 µM | – | > 100 µM | – | > 100 µM | – | > 100 µM | – | > 100 µM
COC(=O)C1=C(O)C(O)=C(C(=O)OC)CC1 | – | > 100 µM | – | > 100 | – | > 100 µM | – | > 100 µM | – | > 100 µM | – | > 100 µM | – | > 100 µM | – | > 100 µM | – | > 100 µM | – | > 100 µM
COc1ccc(C(=O)CC2(O)C(=O)Nc3c(Cl)ccc(Cl)c32)cc1 (stereo not drawn) | 6.42 µM | > 100 µM | 1.75 | > 100 | 0.885 µM | 86.4 µM | 4.95 µM | > 100 µM | 0.406 µM | 3.58 µM | 11.9 µM | > 100 µM | 2.64 µM | 15.5 µM | 1.35 µM | 14.8 µM | 0.413 µM | 56.1 µM | 0.791 µM | > 100 µM
COc1ccc(NC(=O)CC/C(CC(=O)c2ccco2)=N/Nc2ccc([N+](=O)[O-])cc2[N+](=O)[O-])cc1 | – | > 100 µM | – | > 100 | – | > 100 µM | – | > 100 µM | – | > 100 µM | – | > 100 µM | – | 82.3 µM | – | > 100 µM | – | 64.4 µM | – | > 100 µM
